These results are taken from ChEMBL document CHEMBL1155836, “Discovery of imidazole carboxamides as potent and selective CCK1R agonists” (Bioorg Med Chem Lett, 2008).

A short description of data set [1]: Clearance in mouse at 1.0 mg/kg, iv and 10 mg/kg, po. Format: ADME, organism-based. The note with it: in vivo.
Data set [2] in a line: Half life in mouse at 1.0 mg/kg, iv and 10 mg/kg, po. The data set is classed as ADME, organism-based. The note with it: in vivo.
The test system of data set [3] is Mus musculus. Briefly: Reduction in overnight food intake in lean mouse at 0.3 mg/kg, po. Also noted: scale not given: the % may be the effect or the level left. The data set is classed as functional.
Data set [4] deals with Mus musculus. Kind of data set: Reduction in overnight food intake in lean mouse at 3 mg/kg, po. Format: functional. Also noted: scale not given: the % may be the effect or the level left.
Data set [5] concerns the target Cholecystokinin receptor type A (Mus musculus, UniProt O08786). Kind of data set: Agonist activity against mouse CCK1 receptor. Format: functional.
Data set [6] has as its system Mus musculus. Briefly: Cmax in mouse at 1.0 mg/kg, iv and 10 mg/kg, po. The data set is classed as ADME, organism-based. The note with it: in vivo.
A short description of data set [7]: Volume of distribution in mouse at 1.0 mg/kg, iv and 10 mg/kg, po. The data set is classed as ADME, organism-based. The note with it: in vivo.
A short description of data set [8]: Oral bioavailability in mouse at 10 mg/kg. Format: ADME, organism-based. The note with it: in vivo.
In data set [9] the target is T1, Cholecystokinin receptor type A (Homo sapiens, UniProt P32238).
T1 sequence (P32238 whole entry): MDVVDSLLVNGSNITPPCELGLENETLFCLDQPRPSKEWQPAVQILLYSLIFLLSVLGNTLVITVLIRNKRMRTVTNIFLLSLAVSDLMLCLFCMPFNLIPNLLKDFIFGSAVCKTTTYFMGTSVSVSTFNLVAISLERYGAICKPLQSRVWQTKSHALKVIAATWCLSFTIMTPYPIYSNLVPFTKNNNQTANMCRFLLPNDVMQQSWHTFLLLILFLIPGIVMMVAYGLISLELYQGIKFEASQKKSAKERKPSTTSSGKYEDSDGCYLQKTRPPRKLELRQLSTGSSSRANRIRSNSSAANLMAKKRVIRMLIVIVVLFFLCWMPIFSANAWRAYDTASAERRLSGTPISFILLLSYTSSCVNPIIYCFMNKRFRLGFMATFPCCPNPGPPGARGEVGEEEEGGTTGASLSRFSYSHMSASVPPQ
Kind of data set: Inhibition of human CCK1 receptor.

Data set [10] concerns the target T1, Cholecystokinin receptor type A. Kind of data set: Agonist activity against human CCK1 receptor. Format: functional.
Data set [11] addresses T2, Gastrin/cholecystokinin type B receptor (Homo sapiens, UniProt P32239).
T2 sequence (P32239 whole entry): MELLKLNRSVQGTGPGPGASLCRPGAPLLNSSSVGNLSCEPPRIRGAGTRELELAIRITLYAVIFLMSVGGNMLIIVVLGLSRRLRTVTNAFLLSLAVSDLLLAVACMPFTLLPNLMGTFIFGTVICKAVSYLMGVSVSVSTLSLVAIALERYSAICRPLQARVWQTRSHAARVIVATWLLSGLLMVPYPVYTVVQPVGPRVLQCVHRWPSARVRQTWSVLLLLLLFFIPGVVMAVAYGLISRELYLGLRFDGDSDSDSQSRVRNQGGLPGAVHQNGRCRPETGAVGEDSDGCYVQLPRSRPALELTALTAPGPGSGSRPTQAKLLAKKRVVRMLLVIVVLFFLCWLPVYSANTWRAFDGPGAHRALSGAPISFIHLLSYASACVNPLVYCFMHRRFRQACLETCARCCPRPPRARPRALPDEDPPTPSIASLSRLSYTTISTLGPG
Briefly: Inhibition of human CCK2 receptor.

Data set [12] concerns Mus musculus. Briefly: Gallbladder emptying activity in mouse assessed as reduction of gallbladder weight at 0.3 mg/kg, po. The data set is classed as functional. Also noted: scale not given: the % may be the effect or the level left.
The target in data set [13] is T3, Cholecystokinin receptor type A (Homo sapiens) (UniProt P32238).
T3 sequence (whole entry): T1 sequence (P32238 whole entry)
Kind of data set: Agonist activity against human CCK1 receptor assessed as receptor activation at 10000 nM. Format: functional.

For data set [14], the target named is T4, Gastrin/cholecystokinin type B receptor (Homo sapiens) (UniProt P32239).
T4 sequence (whole entry): T2 sequence (P32239 whole entry)
Kind of data set: Inhibition of human CCK2 receptor at 10000 nM.

Data set [15] concerns Mus musculus. Briefly: Gallbladder emptying activity in mouse assessed as reduction of gallbladder weight at 0.1 mg/kg, po. The data set is classed as functional, organism-based. Also noted: dose 0.1 mg/kg.
For data set [16], the target named is T4, Gastrin/cholecystokinin type B receptor (Homo sapiens). Kind of data set: Agonist activity against human CCK2 receptor. The data set is classed as functional.
For data set [17] the target is unchanged. Briefly: Agonist activity against human CCK2 receptor assessed as receptor activation at 10000 nM. Format: functional.

The structures appear in SMILES notation. Active and inactive are the calls of the source. A value given as a limit tells only on which side of the number the result lay.

Chain of Cholecystokinin receptor type A (Mus musculus, UniProt O08786) (O08786 whole entry, looked up): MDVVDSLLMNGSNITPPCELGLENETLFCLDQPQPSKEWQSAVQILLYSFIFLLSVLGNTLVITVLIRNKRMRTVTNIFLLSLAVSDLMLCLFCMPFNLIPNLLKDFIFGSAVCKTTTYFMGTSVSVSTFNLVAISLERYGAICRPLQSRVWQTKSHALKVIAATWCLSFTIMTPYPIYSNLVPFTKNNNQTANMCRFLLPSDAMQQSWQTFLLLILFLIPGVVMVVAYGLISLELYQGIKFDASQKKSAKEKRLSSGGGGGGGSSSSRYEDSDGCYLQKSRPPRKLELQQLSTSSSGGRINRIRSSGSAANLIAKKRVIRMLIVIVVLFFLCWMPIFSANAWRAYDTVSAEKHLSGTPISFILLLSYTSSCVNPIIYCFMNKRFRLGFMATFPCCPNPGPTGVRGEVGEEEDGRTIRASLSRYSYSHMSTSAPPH

By half-life is commonly meant the time needed for the level to fall by half in the phase considered. What is called EC50 is the concentration needed to bring the measured effect to its halfway point. The term Cmax denotes the maximum level reached in the sampled fluid or tissue. What is called bioavailability is dose-corrected exposure relative to a reference, in per cent. `CCOc1cccc(-n2cc(C(=O)N3CCN(c4cc(C(=O)[O-])c5ccccc5c4)CC3)nc2-c2ccc(C)cc2)c1.[Na+]` gave a clearance in [1] of 3.1 mL/min/kg. Moreover, the half-life in [2] is 3.4 h. The Activity is 29% in the data set with Mus musculus [3] and 78% in the data set with Mus musculus [4]. Moreover, the EC50 in data set [5] is 0.78 nM. Further, in the data set on Mus musculus [6], the concentration peaked (Cmax) at 4.9 µM. Also, the Vd in [7] is 0.56 L/kg. For the same compound, the bioavailability in data set [8] stood at 43%.
Usually IC50 stands for the concentration that inhibits the measured activity by half. On to `CCOc1cccc(-n2cc(C(=O)N3CCN(c4cnc5ccccc5c4)CC3)nc2-c2ccc(C)cc2)c1` [listing 1 of 2 here], for which the half-maximal inhibitory concentration (IC50) in data set [9] is 0.45 nM; in data set [11], > 10000 nM. In data set [10], this compound displayed a half-maximal effective concentration (EC50) of 0.73 nM. Moreover, the Activity in the data set with Mus musculus [12] was 59%.
The term inhibition denotes the share of the control response that was lost under treatment. Regarding `CCOc1cccc(-n2cc(C(=O)N3CCN(c4cnc5ccccc5c4)CC3)nc2-c2ccc(C)cc2)c1` [listing 2 of 2 here], the figures for the Activity in data set [13] and in [17] were 105% and < 36%, respectively. Besides, the inhibition in data set [14] was < 24%. The result (with Mus musculus [15]; in data set [16]) was inactive.
